Active and inactive are the calls of the source.
Columns and labels:
[1] = ADP-Glo luciferase signal interference – biochemical, luminescence, cherry-picked samples, set 2, artefact control for CDK5 inhibitor project, dose response (AID 504546); assay type: functional, cell-based
[2] = Luminescence Cell-Based Dose Confirmation HTS to Identify Inhibitors of Platelet Dense Granule Release. [Related pubchem assays: 1663 (Primary HTS), 1678 (Summary of Project)]; assay type: functional
Beta-galactosidase [3] = target: T1, Beta-galactosidase (Escherichia coli, UniProt Q8VNN2); assay: detection-enzyme interference by beta-gal modulators – biochemical, E. coli enzyme, set 3, artefact control for CCR6 antagonist project, dose response (AID 504712); assay type: functional
[4] = target: C-C chemokine receptor type 6 (Homo sapiens, UniProt P51684); assay: antagonism of CCR6 beta-arrestin recruitment – cell-based, luminescent beta-arrestin readout, dose response (AID 504728); assay type: functional
[5] = loss of viability in HepG2 cells – cell-based, CellTiter-Glo, cherry-picked, cytotoxicity control for Shn3 inhibitor project, dose response (AID 624134); assay type: functional
[6] = reduction of Shn3 3'UTR-driven luciferase in osteoblasts – cell-based, Clone20 osteoblasts, firefly luciferase, cherry-picked, dose response (AID 624132); assay type: functional;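 also: firefly luciferase luminescence from reporter carrying the Shn3 3'UTR in osteoblasts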
[7] = non-specific 3'UTR reporter inhibition in Clone20-Shn3RL – cell-based, Renilla luciferase, cherry-picked, counter-screen for Shn3 inhibitor project, dose response (AID 624133); assay type: functional
Cytochrome P450 2C9 = Cytochrome P450 2C9 (Homo sapiens, UniProt P11712); conditions: Potency
Cytochrome P450 2C19 = Cytochrome P450 2C19 (Homo sapiens, UniProt P33261); assay: qHTS Assay for Inhibitors and Substrates of Cytochrome P450 2C19. [Related pubchem assays: 410 ]; assay type: ADME; conditions: read-out: Potency
Cytochrome P450 2D6 = Cytochrome P450 2D6 (Homo sapiens, UniProt P10635); assay: qHTS Assay for Inhibitors and Substrates of Cytochrome P450 2D6. [Related pubchem assays: 410 ]; assay type: ADME; conditions: read-out: Potency
[8] = luciferase reporter signal reduction – luminescence, H4-C neuroglioblastoma cells, dose response (AID 2458); assay type: functional, cell-based;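 also: H4 neuroglioblastoma cells stably carrying a luciferase reporter gene fusion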
[9] = DRD fibroblast viability loss – cell-based, non-viral oncogenic, luminescence, dose response (AID 1934); assay type: functional; conditions: Homo sapiens
BJ [10] = assay: growth inhibition of engineered Ras-driven BJ cells – cell-based, alamar blue fluorescence, cherrypicked samples, dose response (AID 2631); assay type: functional; conditions: Homo sapiens;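 also: confirmatory dose-response assay in RAS-dependent BJ fibroblasts engineered with TERT, LT and ST, with cytotoxicity read by fluorescence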
[11] = Luminescence Cell-Based Dose Response HTS to Identify Inhibitors of 5'UTR Stem-Loop Driven Prion Protein mRNA Translation in H4 Neuroglioblastoma Cells. [Related pubchem assays: 1827 (Project Summary), 1813 (Primary HTS)]; assay type: functional
BJ [12] = assay: BJ-TERT-LT-ST fibroblast viability loss – cell-based, RAS-independent, luminescence, dose response (AID 1935); assay type: functional; conditions: Homo sapiens;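 also: BJ fibroblasts immortalized with TERT plus LT and ST oncogenes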
HEK293 [13] = assay: cells; assay type: functional, cell-based; conditions: Homo sapiens
HEK293 [14] = assay: NOD2 signaling inhibitors in MDP-stimulated cells, cell-based, uHTS, luminescence (AID 2001); assay type: functional; conditions: Homo sapiens
[15] = alpha-synuclein stem-loop luciferase translation blockers – H4 neuroglioma cells, luminescence, confirmation (AID 1988); assay type: functional, cell-based
[16] = alpha-synuclein stem-loop translation blockers – luminescence, H4 neuroglioblastoma cells, dose confirmation, confirmation (AID 2454); assay type: functional, cell-based;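 also: H4 neuroglioblastoma cells carrying an alpha-synuclein 5'UTR luciferase reporter; potency for inhibition of the luciferase signal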
cells = assay type: functional, cell-based
BJ [17] = assay: cells; assay type: functional, cell-based; conditions: Homo sapiens
BJ [18] = assay: BJ-TERT fibroblast viability loss – cell-based, RAS-independent, luminescence, dose response (AID 1933); assay type: functional; conditions: Homo sapiens
[19] = target: ATP-dependent molecular chaperone HSP82 (Candida albicans (strain WO-1) (Yeast), UniProt C4YTQ8); assay: steroid-induced GRE reporter decrease in yeast – S. cerevisiae, luminescence, Hsp90 inhibitor project, dose response (AID 2400); assay type: functional, cell-based;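 also: beta-galactosidase luminescence from glucocorticoid response element reporter as proxy for Hsp90 function; inhibitor potency where signal loss means Hsp90 inhibition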
[20] = luciferase reporter signal suppression in cells – H4 neuroglioma cells, luminescence, dose response (AID 1990); assay type: functional, cell-based
[21] = target: T2, Serine/threonine-protein phosphatase (Candida dubliniensis (strain CD36 / CBS 7987 / NCPF 3949 / NRRLY-17841) (Yeast), UniProt B9W6M3); assay: blockers of CaCl2-induced CDRE-lacZ signaling – S. cerevisiae, luminescence, secondary, dose response (AID 2388); assay type: functional, cell-based;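 also: yeast reporter cells carrying a calcineurin-responsive lacZ construct stimulated with calcium chloride; luminescent beta-galactosidase reporter signal in whole cells rather than isolated phosphatase activity; potency for inhibition where a drop in reporter signal means calcineurin blockade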
T2 sequence (B9W6M3 whole entry): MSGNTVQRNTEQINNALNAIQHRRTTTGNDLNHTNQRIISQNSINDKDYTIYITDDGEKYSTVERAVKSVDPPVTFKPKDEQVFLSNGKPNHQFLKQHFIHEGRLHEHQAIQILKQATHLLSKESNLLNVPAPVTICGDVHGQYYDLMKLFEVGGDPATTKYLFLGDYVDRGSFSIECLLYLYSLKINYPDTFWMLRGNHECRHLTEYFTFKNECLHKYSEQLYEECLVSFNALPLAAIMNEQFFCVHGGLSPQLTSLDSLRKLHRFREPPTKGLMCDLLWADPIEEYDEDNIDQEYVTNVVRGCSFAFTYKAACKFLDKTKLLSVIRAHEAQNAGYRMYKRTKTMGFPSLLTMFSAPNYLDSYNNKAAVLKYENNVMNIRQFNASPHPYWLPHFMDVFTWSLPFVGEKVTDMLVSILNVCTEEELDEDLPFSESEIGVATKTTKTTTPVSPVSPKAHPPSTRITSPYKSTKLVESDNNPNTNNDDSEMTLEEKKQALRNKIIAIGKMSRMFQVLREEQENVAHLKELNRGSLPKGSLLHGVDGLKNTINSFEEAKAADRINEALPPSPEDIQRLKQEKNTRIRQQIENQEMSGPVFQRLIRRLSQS

[22] = fluconazole-exposed Candida albicans growth modulators – fluorescence, retest, confirmation (AID 2467); assay type: functional, cell-based
HEK293 [23] = assay: cells; assay type: functional, cell-based; conditions: Homo sapiens; remark: listed apart in the source
HEK293 [24] = assay: cells; assay type: functional, cell-based; conditions: Homo sapiens; remark: listed apart in the source
HEK293 [25] = assay: inhibition of NOD1-driven NF-kB reporter – cell-based, luminescence, uHTS, primary screen (AID 1578); assay type: functional; conditions: Homo sapiens
[26] = NIH-3T3 fibroblast cytotoxicity, dose response, cytotoxicity control, cell-based, fluorescence, Alamar Blue, secondary assay (AID 2327); assay type: functional;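 also: NIH-3T3 mouse fibroblasts cultured with fluconazole at 8 µg/mL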
[27] = target: Nucleotide-binding oligomerization domain-containing protein 2 (Homo sapiens, UniProt Q9HC29); assay: inhibition of NOD2-driven NF-kB reporter – cell-based, luminescence, uHTS, HEK293 (AID 1566); assay type: functional
Wee1-like protein kinase = Wee1-like protein kinase (Homo sapiens, UniProt P30291); assay: Dose Response Cell-based Assay for Inhibitors of Wee1 Degradation. [Related pubchem assays: 1410, 1321 ]; assay type: functional
[28] = target: Sphingosine 1-phosphate receptor 1 (Homo sapiens, UniProt P21453); assay type: functional;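 also: Tango beta-arrestin reporter U2OS cells stimulated with S1P near its EC80; inhibitor potency meaning antagonism of receptor activation by the natural agonist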
HeLa = assay: Cytotoxicity counterscreen assay for transcriptional activators of heat shock protein 70 (Hsp70). [Related pubchem assays: 1203, 1252 ]; assay type: functional; conditions: Homo sapiens;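 also: cells exposed to compound for 16 hours before readout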
INS1 = assay: INS-1E survival protection against cytokine death – cell-based, luminescence, retest, dose response (AID 449756); assay type: functional; conditions: Rattus norvegicus;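 also: cell death triggered by IL-1 beta plus TNF-alpha plus IFN-gamma mixture; protective hits raise ATP signal compared with cytokine alone wells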
[29] = target: Sphingosine 1-phosphate receptor 2 (Homo sapiens, UniProt O95136); assay: Dose Response Cell Based Assay for Antagonists of the S1P2 Receptor. [Related pubchem assays: 856, 736 ]; assay type: functional
Beta-galactosidase [30] = target: T1, Beta-galactosidase; assay: PubChem AID 485352; assay type: functional
[31] = target: Sphingosine 1-phosphate receptor 4 (Homo sapiens, UniProt O95977); assay: Fluorescence dose response cell-based high throughput screening assay for antagonists of the Sphingosine 1-Phosphate Receptor 4 (S1P4). [Related pubchem assays: 1524 (Confirmation in triplicates.), 1510 (Primary screen.)]; assay type: functional
[32] = target: T3, Heat shock factor protein 1 (Mus musculus, UniProt P38532); assay: decrease of HSF1-responsive luciferase luminescence – cell-based, NIH3T3, dose retest, confirmation (AID 2382); assay type: functional;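 also: NIH3T3 fibroblasts with HSF1-driven luciferase reporter stressed by proteasome inhibitor MG132; luminescence from HSF1-driven luciferase expression after 8 hours of MG132 stress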
T3 sequence (P38532 whole entry): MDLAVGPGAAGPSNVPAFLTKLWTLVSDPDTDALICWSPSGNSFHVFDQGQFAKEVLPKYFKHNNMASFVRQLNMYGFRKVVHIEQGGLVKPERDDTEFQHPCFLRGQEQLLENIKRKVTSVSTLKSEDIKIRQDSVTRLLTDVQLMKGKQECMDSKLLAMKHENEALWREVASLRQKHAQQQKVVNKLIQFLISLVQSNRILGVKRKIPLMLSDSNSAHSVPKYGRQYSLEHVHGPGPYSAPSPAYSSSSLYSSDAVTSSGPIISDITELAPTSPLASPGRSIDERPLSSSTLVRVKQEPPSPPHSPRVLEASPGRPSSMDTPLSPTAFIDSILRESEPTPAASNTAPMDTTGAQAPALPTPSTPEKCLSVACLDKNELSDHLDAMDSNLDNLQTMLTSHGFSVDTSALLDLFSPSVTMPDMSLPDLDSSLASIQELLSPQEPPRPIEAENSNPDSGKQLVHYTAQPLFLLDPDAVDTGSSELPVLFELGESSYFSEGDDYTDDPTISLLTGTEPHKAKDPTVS

[33] = microbe, parasite or virus in culture; assay type: functional; conditions: Mycobacterium tuberculosis
[34] = target: T4, Type-1 angiotensin II receptor (Homo sapiens, UniProt P30556); assay: antagonism of angiotensin II type 1 receptor – cell-based, uHTS hits, selectivity assay for APJ receptor antagonist project, dose response (AID 463214); assay type: functional;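 also: antagonist potency against angiotensin II stimulated AT1 response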
T4 sequence (P30556 whole entry): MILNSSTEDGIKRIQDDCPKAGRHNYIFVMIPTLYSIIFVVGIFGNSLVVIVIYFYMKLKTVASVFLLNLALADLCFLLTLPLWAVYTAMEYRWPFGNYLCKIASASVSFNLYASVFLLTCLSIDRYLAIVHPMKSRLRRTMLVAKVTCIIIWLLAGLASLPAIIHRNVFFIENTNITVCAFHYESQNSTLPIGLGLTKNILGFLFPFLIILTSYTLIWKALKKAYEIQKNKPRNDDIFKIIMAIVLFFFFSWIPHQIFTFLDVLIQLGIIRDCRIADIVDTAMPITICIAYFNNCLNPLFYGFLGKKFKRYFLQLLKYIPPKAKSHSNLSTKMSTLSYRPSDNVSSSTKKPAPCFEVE

[35] = target: G2/mitotic-specific cyclin-B1 (Homo sapiens, UniProt P14635); assay: Counterscreen assay for inhibitors of Wee1 degradation: dose response cell-based assay to identify inhibitors of cyclin B degradation. [Related pubchem assays: 1410, 1321 ]; assay type: functional
[36] = HEK-293T viability loss after treatment – luminescence, T-cell screen hits, cytotoxicity control for TCR NF-kB inhibitor project, dose response (AID 489026); assay type: functional, cell-based;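 also: cells exposed to compound about 14 hours before the viability readout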

T1 sequence (Q8VNN2 whole entry): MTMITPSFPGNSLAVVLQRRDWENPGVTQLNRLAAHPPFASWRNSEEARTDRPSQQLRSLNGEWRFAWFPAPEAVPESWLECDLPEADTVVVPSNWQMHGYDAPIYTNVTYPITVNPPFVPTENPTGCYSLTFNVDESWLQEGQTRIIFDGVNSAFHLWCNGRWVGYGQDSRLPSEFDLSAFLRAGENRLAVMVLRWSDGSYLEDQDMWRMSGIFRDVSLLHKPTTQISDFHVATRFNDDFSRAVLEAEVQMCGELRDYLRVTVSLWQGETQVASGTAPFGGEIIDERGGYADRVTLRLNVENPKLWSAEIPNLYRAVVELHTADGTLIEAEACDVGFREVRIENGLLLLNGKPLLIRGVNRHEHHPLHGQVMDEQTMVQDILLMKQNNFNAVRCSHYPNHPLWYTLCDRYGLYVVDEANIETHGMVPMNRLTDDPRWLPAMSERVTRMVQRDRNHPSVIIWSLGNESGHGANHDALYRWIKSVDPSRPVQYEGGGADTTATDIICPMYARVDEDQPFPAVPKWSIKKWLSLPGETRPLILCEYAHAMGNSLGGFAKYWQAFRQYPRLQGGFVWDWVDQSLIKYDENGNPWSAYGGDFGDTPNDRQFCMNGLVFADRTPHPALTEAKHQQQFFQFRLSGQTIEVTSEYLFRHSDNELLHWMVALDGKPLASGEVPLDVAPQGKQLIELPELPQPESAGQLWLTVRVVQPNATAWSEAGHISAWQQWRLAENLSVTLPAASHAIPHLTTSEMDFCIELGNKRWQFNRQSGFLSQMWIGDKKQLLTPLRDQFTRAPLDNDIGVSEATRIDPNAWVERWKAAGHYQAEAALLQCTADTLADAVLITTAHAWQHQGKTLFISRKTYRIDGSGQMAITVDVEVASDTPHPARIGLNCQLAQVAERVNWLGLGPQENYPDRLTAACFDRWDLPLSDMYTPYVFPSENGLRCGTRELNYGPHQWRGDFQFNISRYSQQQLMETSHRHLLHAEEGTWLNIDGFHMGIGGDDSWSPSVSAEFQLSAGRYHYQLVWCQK
Sequence of Sphingosine 1-phosphate receptor 1 (P21453 whole entry): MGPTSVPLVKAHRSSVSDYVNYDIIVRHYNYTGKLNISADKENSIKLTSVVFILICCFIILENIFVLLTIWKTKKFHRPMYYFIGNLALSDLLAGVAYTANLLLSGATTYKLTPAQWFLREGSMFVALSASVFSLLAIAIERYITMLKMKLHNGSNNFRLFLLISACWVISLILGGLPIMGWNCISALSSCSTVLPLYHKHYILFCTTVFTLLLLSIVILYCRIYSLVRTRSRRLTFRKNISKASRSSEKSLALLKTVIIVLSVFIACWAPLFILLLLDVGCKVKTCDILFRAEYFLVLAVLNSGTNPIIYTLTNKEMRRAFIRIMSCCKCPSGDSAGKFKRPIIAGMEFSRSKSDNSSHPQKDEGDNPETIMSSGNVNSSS
Sequence of Cytochrome P450 2C19 (P33261 whole entry): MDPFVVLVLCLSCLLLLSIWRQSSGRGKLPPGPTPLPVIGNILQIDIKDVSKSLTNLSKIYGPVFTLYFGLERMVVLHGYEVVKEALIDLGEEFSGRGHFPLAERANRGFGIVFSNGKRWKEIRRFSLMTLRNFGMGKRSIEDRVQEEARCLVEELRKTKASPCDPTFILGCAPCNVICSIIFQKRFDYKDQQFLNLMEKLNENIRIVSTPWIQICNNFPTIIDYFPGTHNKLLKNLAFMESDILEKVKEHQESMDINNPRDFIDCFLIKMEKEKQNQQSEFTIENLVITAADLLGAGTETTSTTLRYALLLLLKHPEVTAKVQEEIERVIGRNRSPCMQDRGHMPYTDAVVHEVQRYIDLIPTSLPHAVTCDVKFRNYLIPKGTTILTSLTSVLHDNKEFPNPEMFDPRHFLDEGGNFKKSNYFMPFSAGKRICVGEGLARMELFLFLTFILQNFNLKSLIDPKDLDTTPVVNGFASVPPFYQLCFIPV
Sequence of C-C chemokine receptor type 6 (P51684 whole entry): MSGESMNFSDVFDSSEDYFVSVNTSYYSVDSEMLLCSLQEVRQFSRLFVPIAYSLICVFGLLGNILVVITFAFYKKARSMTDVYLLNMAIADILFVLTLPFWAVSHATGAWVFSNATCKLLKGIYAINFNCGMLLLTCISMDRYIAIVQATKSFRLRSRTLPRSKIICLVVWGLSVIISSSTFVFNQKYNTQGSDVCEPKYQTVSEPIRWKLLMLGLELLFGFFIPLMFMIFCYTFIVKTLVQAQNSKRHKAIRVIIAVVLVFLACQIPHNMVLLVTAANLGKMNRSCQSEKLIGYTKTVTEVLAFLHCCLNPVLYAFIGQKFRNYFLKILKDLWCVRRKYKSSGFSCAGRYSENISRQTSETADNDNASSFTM
Sequence of Wee1-like protein kinase (P30291 whole entry): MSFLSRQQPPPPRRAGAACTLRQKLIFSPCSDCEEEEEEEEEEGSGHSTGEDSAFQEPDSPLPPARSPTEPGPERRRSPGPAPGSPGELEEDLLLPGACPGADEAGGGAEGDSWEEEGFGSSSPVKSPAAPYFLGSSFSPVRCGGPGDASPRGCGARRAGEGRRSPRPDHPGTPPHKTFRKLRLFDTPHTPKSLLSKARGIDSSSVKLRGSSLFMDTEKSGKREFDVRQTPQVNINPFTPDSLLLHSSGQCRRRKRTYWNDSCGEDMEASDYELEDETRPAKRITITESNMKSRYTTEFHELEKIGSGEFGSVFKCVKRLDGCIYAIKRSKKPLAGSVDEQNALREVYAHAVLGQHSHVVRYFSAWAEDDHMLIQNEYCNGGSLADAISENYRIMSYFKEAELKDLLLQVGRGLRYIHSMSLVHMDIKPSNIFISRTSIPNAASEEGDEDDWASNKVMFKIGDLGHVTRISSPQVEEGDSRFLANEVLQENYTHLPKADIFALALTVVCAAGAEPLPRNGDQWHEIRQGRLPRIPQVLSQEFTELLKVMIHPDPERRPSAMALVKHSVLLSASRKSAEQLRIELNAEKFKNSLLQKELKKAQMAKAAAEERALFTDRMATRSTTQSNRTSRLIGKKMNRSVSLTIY
Sequence of Sphingosine 1-phosphate receptor 2 (O95136 whole entry): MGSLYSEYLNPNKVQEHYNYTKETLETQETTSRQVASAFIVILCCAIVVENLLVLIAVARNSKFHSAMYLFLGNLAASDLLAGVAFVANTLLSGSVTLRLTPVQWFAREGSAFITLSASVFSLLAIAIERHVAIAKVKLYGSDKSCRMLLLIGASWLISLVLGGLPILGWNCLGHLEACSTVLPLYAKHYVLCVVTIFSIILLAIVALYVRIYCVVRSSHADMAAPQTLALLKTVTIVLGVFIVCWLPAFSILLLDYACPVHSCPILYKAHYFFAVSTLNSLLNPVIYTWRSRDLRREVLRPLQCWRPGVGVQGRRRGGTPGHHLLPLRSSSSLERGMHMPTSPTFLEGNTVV
Sequence of ATP-dependent molecular chaperone HSP82 (C4YTQ8 whole entry): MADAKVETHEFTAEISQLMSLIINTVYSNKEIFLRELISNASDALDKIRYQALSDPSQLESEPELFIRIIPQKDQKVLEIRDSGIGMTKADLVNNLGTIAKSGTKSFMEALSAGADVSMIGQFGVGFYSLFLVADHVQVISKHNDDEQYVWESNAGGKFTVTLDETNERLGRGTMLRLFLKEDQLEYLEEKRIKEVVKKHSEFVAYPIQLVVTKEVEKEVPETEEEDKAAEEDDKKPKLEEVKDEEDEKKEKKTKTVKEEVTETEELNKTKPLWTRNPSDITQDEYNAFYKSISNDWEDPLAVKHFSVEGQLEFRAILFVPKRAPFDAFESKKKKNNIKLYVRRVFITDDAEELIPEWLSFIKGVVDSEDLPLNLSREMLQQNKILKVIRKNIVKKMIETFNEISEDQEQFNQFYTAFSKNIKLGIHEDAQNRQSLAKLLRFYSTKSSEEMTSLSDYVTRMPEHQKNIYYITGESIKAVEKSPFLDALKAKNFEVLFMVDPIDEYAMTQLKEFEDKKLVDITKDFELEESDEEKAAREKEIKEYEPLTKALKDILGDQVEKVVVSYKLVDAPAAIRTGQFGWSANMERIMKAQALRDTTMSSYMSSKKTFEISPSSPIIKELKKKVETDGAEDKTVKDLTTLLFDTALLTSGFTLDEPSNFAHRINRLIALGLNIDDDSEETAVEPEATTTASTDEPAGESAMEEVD
Sequence of Nucleotide-binding oligomerization domain-containing protein 2 (Q9HC29 whole entry, the tested form may be a part): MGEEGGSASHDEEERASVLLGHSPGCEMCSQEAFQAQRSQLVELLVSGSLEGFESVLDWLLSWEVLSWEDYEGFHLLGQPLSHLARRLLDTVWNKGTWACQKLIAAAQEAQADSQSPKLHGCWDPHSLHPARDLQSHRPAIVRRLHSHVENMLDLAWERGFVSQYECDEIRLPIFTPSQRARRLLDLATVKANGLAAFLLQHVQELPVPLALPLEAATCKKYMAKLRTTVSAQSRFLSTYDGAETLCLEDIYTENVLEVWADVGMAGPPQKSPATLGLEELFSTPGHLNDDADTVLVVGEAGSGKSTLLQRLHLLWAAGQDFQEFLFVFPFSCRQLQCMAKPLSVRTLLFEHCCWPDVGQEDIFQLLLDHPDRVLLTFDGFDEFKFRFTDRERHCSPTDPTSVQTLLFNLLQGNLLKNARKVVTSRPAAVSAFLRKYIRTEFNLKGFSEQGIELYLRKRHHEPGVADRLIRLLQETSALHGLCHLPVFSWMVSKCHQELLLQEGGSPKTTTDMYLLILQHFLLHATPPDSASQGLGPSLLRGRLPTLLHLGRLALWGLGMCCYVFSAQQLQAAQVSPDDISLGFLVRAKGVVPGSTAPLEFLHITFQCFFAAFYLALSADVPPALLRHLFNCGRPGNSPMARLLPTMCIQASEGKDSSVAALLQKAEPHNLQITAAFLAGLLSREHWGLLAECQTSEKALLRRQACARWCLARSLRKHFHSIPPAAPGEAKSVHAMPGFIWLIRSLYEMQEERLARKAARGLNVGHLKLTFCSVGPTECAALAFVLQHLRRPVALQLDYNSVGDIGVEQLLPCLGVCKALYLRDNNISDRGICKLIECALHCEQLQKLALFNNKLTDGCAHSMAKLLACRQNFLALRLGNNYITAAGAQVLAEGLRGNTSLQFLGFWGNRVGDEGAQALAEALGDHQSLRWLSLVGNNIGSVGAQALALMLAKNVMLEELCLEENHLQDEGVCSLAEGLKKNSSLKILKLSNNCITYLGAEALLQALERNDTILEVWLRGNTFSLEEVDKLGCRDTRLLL

In the case of `COc1ccc(C(=O)O/N=C(\N)c2ccccc2)cc1`, the AC50 [1] is reported as 37.7 µM (active) and the EC50 [2] is reported as 0.921 µM (active).
In the case of `O=C1C(Br)=C(c2ccccc2)C(c2ccccc2)=C1c1ccccc1`, the IC50 (Beta-galactosidase [3]) is reported as > 66.6 µM (inactive), the IC50 [4] is reported as > 66.6 µM (inactive) and the AC50 [5] is reported as 38.8 µM (active). For the same compound, the AC50 [6] was 0.46 µM (active) and the AC50 [7] was 4.75 µM (active).
With `CCCCCCC#Cc1cc(OC)c(OC)cc1C(N1CC(C)c2ccccc21)N1CC(C)c2ccccc21` (stereo not drawn) the AC50 (Cytochrome P450 2C9) was 3.16 µM (inconclusive), the AC50 (Cytochrome P450 2C19) was 3.98 µM (inconclusive) and the AC50 (Cytochrome P450 2D6) was 7.94 µM (inconclusive).
In the case of `COc1ccc(-c2nnc(NC(=O)c3ccc(S(=O)(=O)N4CCc5ccccc5C4)cc3)o2)cc1`, the EC50 [8] is reported as > 12 µM (not active), the EC50 [9] is reported as 90.3 µM (active) and the EC50 (BJ [10]) is reported as 9.02 µM (active). For the same compound, the EC50 [11] was < 0.1 µM (active), the EC50 (BJ [12]) was > 150 µM (inconclusive) and the IC50 (HEK293 [13]) was > 20 µM (inactive). For the same compound, the IC50 (HEK293 [14]) was 19.6 µM (inactive), the EC50 [15] was 0.139 µM (active) and the EC50 [16] was > 12 µM (not active). For the same compound, the EC50 (cells) was > 12 µM (not active), the EC50 (BJ [17]) was 132 µM (inconclusive) and the EC50 (BJ [18]) was 92.6 µM (active). For the same compound, the EC50 [19] was > 150 µM (inactive), the EC50 [20] was < 0.1 µM (active) and the EC50 [21] was > 180 µM (inactive). For the same compound, the EC50 [22] was 0.256 µM (active), the IC50 (HEK293 [23]) was > 20 µM (inactive) and the IC50 (HEK293 [24]) was > 20 µM (inactive). For the same compound, the EC50 (HEK293 [25]) was > 20 µM (inactive), the EC50 [26] was > 150 µM (inactive) and the EC50 [27] was > 20 µM (inactive).
With `CCCCS(=O)(=O)/C=C\C=C/S(=O)(=O)CCCC` the EC50 (Wee1-like protein kinase) was > 49.7 µM (not active), the IC50 [28] was 13.7 µM (not active) and the CC50 (HeLa) was 9.43 µM (active). For the same compound, the AC50 (INS1) was 3.25 µM (active), the IC50 [29] was 4.5 µM (active) and the EC50 (Beta-galactosidase [30]) was > 40 µM (inactive). The IC50 [31] was 1.28 µM (active), the EC50 [32] was 3.04 µM (active) and the CC50 [33] was 3.13 µM (active). For the same compound, the IC50 [34] was 3.67 µM (active), the EC50 [35] was > 5.53 µM (active) and the IC50 [36] was 52.6 µM (inactive).

Source: ChEMBL document CHEMBL1201862, “PubChem BioAssay data set” (2004)
